Results: patent US20090069373A1, “Quinoline Acids” (Wyeth, priority 2007, published 2009)

How the values were obtained:
human LXRβ = molecular target: T1, human LXRβ (Homo sapiens, UniProt P55055); test: Ligand-binding test procedure for human LXRβ (3H T0901317 competition, flash plates); settings: for Binding ratio a/b: IC50 (μM) LXRα binding/IC50 (μM) LXRβ binding; for IC50: biotinylated hLXRβ, tracer 3H T0901317
T1 construct: biotin (biotinylated; biotinylation tag not described); made in house; host or cells: E. coli
T1 sequence (P55055 1-460): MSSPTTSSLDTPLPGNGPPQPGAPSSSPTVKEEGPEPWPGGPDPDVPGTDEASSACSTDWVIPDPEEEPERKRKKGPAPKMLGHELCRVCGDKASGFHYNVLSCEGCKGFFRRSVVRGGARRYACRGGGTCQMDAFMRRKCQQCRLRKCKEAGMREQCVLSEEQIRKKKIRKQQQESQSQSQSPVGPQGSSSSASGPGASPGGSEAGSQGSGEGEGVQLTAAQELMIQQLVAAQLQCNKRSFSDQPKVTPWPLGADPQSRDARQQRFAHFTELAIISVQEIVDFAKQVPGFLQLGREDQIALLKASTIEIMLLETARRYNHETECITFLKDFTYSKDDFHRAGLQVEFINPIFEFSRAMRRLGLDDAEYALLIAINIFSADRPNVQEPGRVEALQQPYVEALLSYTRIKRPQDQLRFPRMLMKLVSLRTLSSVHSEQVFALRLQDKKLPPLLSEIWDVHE
Procedure: Ligand-Binding Test Procedure for Human LXRβ.
Receptor source: E. coli extract from cells expressing biotinylated hLXRβ. Extract was made in a similar buffer as above, but with 50 mM TRIS.
(§1) Washed streptavidin and coated flash plates with wash buffer.
(§2) Diluted receptor extract to give Bmax ˜4000 cpm and add to the wells.
(§3) Wrapped the plates in aluminum foil and stored them at +4° C. over night.
(§4) Made a dilution series in DMSO of the test ligands.
(§5) Made a 5 nM solution of the radioactive tracer in buffer.
(§6) Mixed 250 μl diluted tracer with 5 μl of the test ligand from each concentration of the dilution series.
(§7) Washed the receptor-coated flash plates.
(§8) Added 200 μl per well of the ligand/radiolabel mixture to the receptor-coated flash plates.
(§9) Wrapped the plates in aluminum foil and incubate at +4° C. over night.
(§10) Aspirated wells, and wash the flashed plates. Sealed the plate.
(§11) Measured the remaining radioactivity in the plate.

human LXRα = molecular target: T2, human LXRα (Homo sapiens, UniProt Q13133); test: Ligand-binding test procedure for human LXRα (3H T0901317 competition, flash plates); settings: biotinylated hLXRα, tracer 3H T0901317
T2 construct: biotin (biotinylated; biotinylation tag not described); made in house; host or cells: E. coli
T2 sequence (Q13133 1-447): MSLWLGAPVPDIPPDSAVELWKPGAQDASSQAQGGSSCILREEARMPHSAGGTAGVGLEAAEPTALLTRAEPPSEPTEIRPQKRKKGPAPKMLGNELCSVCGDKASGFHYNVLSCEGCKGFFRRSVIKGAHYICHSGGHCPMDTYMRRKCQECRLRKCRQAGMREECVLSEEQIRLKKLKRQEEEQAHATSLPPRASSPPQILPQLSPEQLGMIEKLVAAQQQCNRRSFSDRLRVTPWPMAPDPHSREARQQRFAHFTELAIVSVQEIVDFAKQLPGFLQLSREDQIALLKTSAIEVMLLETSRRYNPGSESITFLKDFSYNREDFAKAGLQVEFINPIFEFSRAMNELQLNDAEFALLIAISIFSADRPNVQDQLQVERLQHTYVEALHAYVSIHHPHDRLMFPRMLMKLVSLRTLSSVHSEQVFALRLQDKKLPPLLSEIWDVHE
Procedure: Ligand-Binding Test Procedure for Human LXRα.
Receptor source: E. coli extract from cells expressing biotinylated hLXRα. Extract was made in a similar buffer as above, but with 50 mM TRIS.
as §1, §2, §3, §4, §5, §6, §7, §8, §9, §10, §11

## Cc1cnc2c(C(F)(F)F)cccc2c1-c1cccc(CNc2cc(F)ccc2C(=O)O)c1 [Example 106, 4-fluoro-2-({3-[3-methyl-8-(trifluoromethyl)quinolin-4-yl]benzyl}amino)benzoic acid]
Human LXRβ
  Binding ratio a/b: 1
  IC50: 5.29 µM
Human LXRα
  IC50: 7.28 µM

## O=C(O)[C@@H]1CCCN1C(=O)c1cccc(COc2cccc(-c3c(Cc4ccccc4)cnc4c(C(F)(F)F)cccc34)c2)c1 [Example 59, 1-[3-({3-[3-benzyl-8-(trifluoromethyl)quinolin-4-yl]phenoxy}methyl)benzoyl]proline]
Human LXRβ
  Binding ratio a/b: 5
  IC50: 0.098 µM
Human LXRα
  IC50: 0.467 µM

## O=C(O)Cc1cccc2c(OCc3cncc(-c4ccnc5c(C(F)(F)F)cccc45)c3)cccc12 [Example 118, [5-({5-[8-(trifluoromethyl)quinolin-4-yl]pyridin-3-yl}methoxy)-1-naphthyl]acetic acid]
Human LXRβ
  IC50: 3.74 µM
Human LXRα
  IC50: > 1 µM

## Cc1cnc2c(C(F)(F)F)cccc2c1-c1cccc(CNc2cccc(F)c2C(=O)O)c1 [Example 115, 2-fluoro-6-({3-[3-methyl-8-(trifluoromethyl)quinolin-4-yl]benzyl}amino)benzoic acid]
Human LXRβ
  Binding ratio a/b: 1
  IC50: 10.3 µM
Human LXRα
  IC50: 10.7 µM

## O=C(O)Cc1cccc2c(NCc3cncc(-c4ccnc5c(C(F)(F)F)cccc45)c3)cccc12 [Example 116, {5-[({5-[8-(trifluoromethyl)quinolin-4-yl]pyridin-3-yl}methyl)amino]-1-naphthyl}acetic acid]
Human LXRβ
  IC50: 15.7 µM
Human LXRα
  IC50: > 10 µM

## Cc1ccc(NCc2cccc(-c3c(Cc4ccccc4)cnc4c(C(F)(F)F)cccc34)c2)c(C(=O)O)c1 [Example 71, 2-({3-[3-benzyl-8-(trifluoromethyl)quinolin-4-yl]benzyl}amino)-5-methylbenzoic acid]
Human LXRβ
  Binding ratio a/b: 4
  IC50: 0.558 µM
Human LXRα
  IC50: 2.06 µM

## O=C(O)Cc1ccc(NCc2cccc(-c3ccnc4c(C(F)(F)F)cccc34)c2)c2ccccc12 [Example 65, [4-({3-[8-(trifluoromethyl)quinolin-4-yl]benzyl}amino)-1-naphthyl]acetic acid]
Human LXRβ
  Binding ratio a/b: 4
  IC50: 2.05 µM
Human LXRα
  IC50: 8.83 µM

## O=C(O)Cc1cccc2ccc(OCc3cccc(-c4c(Cc5ccccc5)cnc5c(C(F)(F)F)cccc45)c3)cc12 [Example 86, [7-({3-[3-benzyl-8-(trifluoromethyl)quinolin-4-yl]benzyl}oxy)-1-naphthyl]acetic acid]
Human LXRβ
  Binding ratio a/b: 3
  IC50: 0.374 µM
Human LXRα
  IC50: 0.997 µM

## O=C(O)c1cccc(COc2cccc(-c3c(Cc4ccccc4)cnc4c(C(F)(F)F)cccc34)c2)c1 [Example 90, 3-({3-[3-benzyl-8-(trifluoromethyl)quinolin-4-yl]phenoxy}methyl)benzoic acid]
Human LXRβ
  Binding ratio a/b: 2
  IC50: 0.358 µM
Human LXRα
  IC50: 0.872 µM

## O=C(O)c1cc(NCc2cccc(-c3c(Cc4ccccc4)cnc4c(C(F)(F)F)cccc34)c2)ccc1Cl [Example 82, 5-({3-[3-benzyl-8-(trifluoromethyl)quinolin-4-yl]benzyl}amino)-2-chlorobenzoic acid]
Human LXRβ
  Binding ratio a/b: 3
  IC50: 0.523 µM
Human LXRα
  IC50: 1.45 µM

## O=C(O)c1ccc2cc(NCc3cccc(-c4ccnc5c(C(F)(F)F)cccc45)c3)ccc2c1 [Example 46, 6-({3-[8-(trifluoromethyl)quinolin-4-yl]benzyl}amino)-2-naphthoic acid]
Human LXRβ
  Binding ratio a/b: 6
  IC50: 1.3 µM
Human LXRα
  IC50: 8 µM

## Cc1cccc(NCc2cccc(-c3c(Cc4ccccc4)cnc4c(C(F)(F)F)cccc34)c2)c1C(=O)O [Example 93, 2-({3-[3-benzyl-8-(trifluoromethyl)quinolin-4-yl]benzyl}amino)-6-methylbenzoic acid]
Human LXRβ
  Binding ratio a/b: 2
  IC50: 0.906 µM
Human LXRα
  IC50: 2 µM

## O=C(O)c1ccc(F)c(OCc2cccc(-c3c(Cc4ccccc4)cnc4c(C(F)(F)F)cccc34)c2)c1 [Example 92, 3-({3-[3-benzyl-8-(trifluoromethyl)quinolin-4-yl]benzyl}oxy)-4-fluorobenzoic acid]
Human LXRβ
  Binding ratio a/b: 2
  IC50: 0.57 µM
Human LXRα
  IC50: 1.28 µM

## CSCC[C@H](NC(=O)c1cccc(COc2cccc(-c3c(Cc4ccccc4)cnc4c(C(F)(F)F)cccc34)c2)c1)C(=O)O [Example 76, N-[3-({3-[3-benzyl-8-(trifluoromethyl)quinolin-4-yl]phenoxy}methyl)benzoyl]methionine]
Human LXRβ
  Binding ratio a/b: 3
  IC50: 0.318 µM
Human LXRα
  IC50: 0.983 µM

## Cn1cc(C(=O)O)c2cccc(NCc3cccc(-c4c(Cc5ccccc5)cnc5c(C(F)(F)F)cccc45)c3)c21 [Example 44, 7-({3-[3-benzyl-8-(trifluoromethyl)quinolin-4-yl]benzyl}amino)-1-methyl-1H-indole-3-carboxylic acid]
Human LXRβ
  Binding ratio a/b: 6
  IC50: 0.165 µM
Human LXRα
  IC50: 1.05 µM

## Cc1cnc2c(C(F)(F)F)cccc2c1-c1cncc(CNc2cccc3c(CC(=O)O)cccc23)c1 [Example 119, {5-[({5-[3-methyl-8-(trifluoromethyl)quinolin-4-yl]pyridin-3-yl}methyl)amino]-1-naphthyl}acetic acid]
Human LXRβ
  IC50: 7.22 µM
Human LXRα
  IC50: > 1 µM

## O=C(O)c1ccc(NCc2cccc(-c3c(Cc4ccccc4)cnc4c(C(F)(F)F)cccc34)c2)cc1 [Example 101, 4-({3-[3-benzyl-8-(trifluoromethyl)quinolin-4-yl]benzyl}amino)benzoic acid]
Human LXRβ
  Binding ratio a/b: 2
  IC50: 0.183 µM
Human LXRα
  IC50: 0.354 µM

## O=C(O)c1ccc2ccccc2c1OCc1cccc(-c2c(Cc3ccccc3)cnc3c(C(F)(F)F)cccc23)c1 [Example 95, 1-({3-[3-benzyl-8-(trifluoromethyl)quinolin-4-yl]benzyl}oxy)-2-naphthoic acid]
Human LXRβ
  Binding ratio a/b: 2
  IC50: 1.03 µM
Human LXRα
  IC50: 2.22 µM

## Cc1cc(OCc2cncc(-c3c(Cc4ccccc4)cnc4c(C(F)(F)F)cccc34)c2)c(C)cc1CC(=O)O [Example 17, [4-({5-[3-benzyl-8-(trifluoromethyl)quinolin-4-yl]pyridin-3-yl}methoxy)-2,5-dimethylphenyl]acetic acid]
Human LXRβ
  Binding ratio a/b: 18
  IC50: 0.003 µM
Human LXRα
  IC50: 0.048 µM

## O=C(O)c1cc2ccccc2cc1OCc1cccc(-c2c(Cc3ccccc3)cnc3c(C(F)(F)F)cccc23)c1 [Example 109, 3-({3-[3-benzyl-8-(trifluoromethyl)quinolin-4-yl]benzyl}oxy)-2-naphthoic acid]
Human LXRβ
  Binding ratio a/b: 1
  IC50: 2.73 µM
Human LXRα
  IC50: 3.59 µM

## O=C(O)c1ccc2cc(NCc3cccc(-c4c(Cc5ccccc5)cnc5c(C(F)(F)F)cccc45)c3)ccc2c1 [Example 23, 6-({3-[3-benzyl-8-(trifluoromethyl)quinolin-4-yl]benzyl}amino)-2-naphthoic acid]
Human LXRβ
  Binding ratio a/b: 11
  IC50: 0.062 µM
Human LXRα
  IC50: 0.667 µM

## COc1cc(COc2cccc(-c3c(Cc4ccccc4)cnc4c(C(F)(F)F)cccc34)c2)ccc1C(=O)O [Example 28, 4-({3-[3-benzyl-8-(trifluoromethyl)quinolin-4-yl]phenoxy}methyl)-2-methoxybenzoic acid]
Human LXRβ
  Binding ratio a/b: 9
  IC50: 0.007 µM
Human LXRα
  IC50: 0.066 µM

## COc1ccc(C(=O)O)cc1OCc1cccc(-c2c(Cc3ccccc3)cnc3c(C(F)(F)F)cccc23)c1 [Example 98, 3-({3-[3-benzyl-8-(trifluoromethyl)quinolin-4-yl]benzyl}oxy)-4-methoxybenzoic acid]
Human LXRβ
  Binding ratio a/b: 2
  IC50: 2.5 µM
Human LXRα
  IC50: 5.2 µM

## COc1cccc(NCc2cccc(-c3c(Cc4ccccc4)cnc4c(C(F)(F)F)cccc34)c2)c1C(=O)O [Example 55, 2-({3-[3-benzyl-8-(trifluoromethyl)quinolin-4-yl]benzyl}amino)-6-methoxybenzoic acid]
Human LXRβ
  Binding ratio a/b: 5
  IC50: 0.365 µM
Human LXRα
  IC50: 1.81 µM
